# Source: PMC9516332 (Frontiers in Oncology, 2022)
# Where two headings read alike, the source gives them in different places.
# Legend:
# [1] = tested on: AP-1060 (ETV6-NTRK3); test: Cell viability assay; settings: read-out: IC50 in cell proliferation assay
# [2] = tested on: 134 cancer cell lines; test: Cell viability assay (ATPlite, 72 hours), IC50 on cancer cell line panel
structure (smiles),measurement,setting,value
CC(C)(C)c1nc(-c2cccc(NS(=O)(=O)c3c(F)cccc3F)c2F)c(-c2ccnc(N)n2)s1 [dabrafenib],IC50,[1],2.52 µM
same,IC50,"[2]; HEC-6, read-out: IC50 in cell proliferation assay, HEC-6 cell line (EGFR p.A289V)",> 10 µM
same,IC50,"[2]; Homo sapiens, 769-P, read-out: IC50 in cell proliferation assay, cell line 769-P",1.05 µM
same,IC50,"[2]; Homo sapiens, 786-0, read-out: IC50 in cell proliferation assay, cell line 786-O",1.69 µM
same,IC50,"[2]; Homo sapiens, A 172, read-out: IC50 in cell proliferation assay, cell line A-172",> 10 µM
same,IC50,"[2]; Homo sapiens, A204, read-out: IC50 in cell proliferation assay, cell line A-204",2 µM
same,IC50,"[2]; Homo sapiens, A498, read-out: IC50 in cell proliferation assay, cell line A-498",0.75 µM
same,IC50,"[2]; Homo sapiens, A549, read-out: IC50 in cell proliferation assay, cell line A-549",2.65 µM
same,IC50,"[2]; Homo sapiens, A704, read-out: IC50 in cell proliferation assay, cell line A-704",0.822 µM
same,IC50,"[2]; Homo sapiens, A-375, read-out: IC50 in cell proliferation assay, cell line A-375 (BRAF p.V600E)",0.071 µM
same,IC50,"[2]; Homo sapiens, A-427, read-out: IC50 in cell proliferation assay, cell line A-427",2.24 µM
same,IC50,"[2]; Homo sapiens, ACHN, read-out: IC50 in cell proliferation assay, cell line ACHN",0.598 µM
same,IC50,"[2]; Homo sapiens, AN3-CA, read-out: IC50 in cell proliferation assay, cell line AN3-CA (FGFR2 p.N549K)",2.62 µM
same,IC50,"[2]; Homo sapiens, ASPC1, read-out: IC50 in cell proliferation assay, cell line AsPC-1",> 10 µM
same,IC50,"[2]; Homo sapiens, AU565, read-out: IC50 in cell proliferation assay, cell line AU565 (ERBB2 amplification)",0.981 µM
same,IC50,"[2]; Homo sapiens, BT-20, read-out: IC50 in cell proliferation assay, cell line BT-20",> 10 µM
same,IC50,"[2]; Homo sapiens, BT-474, read-out: IC50 in cell proliferation assay, cell line BT-474 (ERBB2 amplification)",> 10 µM
same,IC50,"[2]; Homo sapiens, BT-549, read-out: IC50 in cell proliferation assay, cell line BT-549",1.53 µM
same,IC50,"[2]; Homo sapiens, BXPC-3, read-out: IC50 in cell proliferation assay, cell line BxPC-3",0.681 µM
same,IC50,"[2]; Homo sapiens, C-33-A, read-out: IC50 in cell proliferation assay, cell line C-33 A",> 10 µM
same,IC50,"[2]; Homo sapiens, CAL-27, read-out: IC50 in cell proliferation assay, cell line CAL-27",> 10 µM
same,IC50,"[2]; Homo sapiens, CCF-STTG1, read-out: IC50 in cell proliferation assay, cell line CCF-STTG1",> 10 µM
same,IC50,"[2]; Homo sapiens, CCRF-CEM, read-out: IC50 in cell proliferation assay, cell line CCRF-CEM",1.59 µM
same,IC50,"[2]; Homo sapiens, COLO 205, read-out: IC50 in cell proliferation assay, cell line COLO 205 (BRAF p.V600E)",0.017 µM
same,IC50,"[2]; Homo sapiens, COLO-829, read-out: IC50 in cell proliferation assay, cell line COLO 829 (BRAF p.V600E)",0.044 µM
same,IC50,"[2]; Homo sapiens, DLD-1, read-out: IC50 in cell proliferation assay, cell line DLD-1",1.07 µM
same,IC50,"[2]; Homo sapiens, DU-4475, read-out: IC50 in cell proliferation assay, cell line DU4475 (BRAF p.V600E)",0.055 µM
same,IC50,"[2]; Homo sapiens, Daoy, read-out: IC50 in cell proliferation assay, cell line Daoy",0.919 µM
same,IC50,"[2]; Homo sapiens, DoTc2-4510, read-out: IC50 in cell proliferation assay, cell line DoTc2 4510",> 10 µM
same,IC50,"[2]; Homo sapiens, EOL1, read-out: IC50 in cell proliferation assay, cell line EoL-1 (FIP1L1-PDGFRA)",2.68 µM
same,IC50,"[2]; Homo sapiens, FaDu, read-out: IC50 in cell proliferation assay, cell line FaDu",2.63 µM
same,IC50,"[2]; Homo sapiens, G-361, read-out: IC50 in cell proliferation assay, cell line G-361 (BRAF p.V600E)",0.047 µM
same,IC50,"[2]; Homo sapiens, HCC827, read-out: IC50 in cell proliferation assay, cell line HCC827 (EGFR exon19del)",1.27 µM
same,IC50,"[2]; Homo sapiens, HCC4006, read-out: IC50 in cell proliferation assay, cell line HCC4006 (EGFR exon19del)",> 10 µM
same,IC50,"[2]; Homo sapiens, HCT-15, read-out: IC50 in cell proliferation assay, cell line HCT 15",1.52 µM
same,IC50,"[2]; Homo sapiens, HCT-116, read-out: IC50 in cell proliferation assay, cell line HCT 116",1.11 µM
same,IC50,"[2]; Homo sapiens, HEC-1, read-out: IC50 in cell proliferation assay, HEC-1 cell line",1.26 µM
same,IC50,"[2]; Homo sapiens, HEC-1B, read-out: IC50 in cell proliferation assay, HEC-1-B cell line (EGFR p.A864V)",> 10 µM
same,IC50,"[2]; Homo sapiens, HL-60, read-out: IC50 in cell proliferation assay, HL-60 cell line",> 10 µM
same,IC50,"[2]; Homo sapiens, HT, read-out: IC50 in cell proliferation assay, HT cell line",> 10 µM
same,IC50,"[2]; Homo sapiens, HT-1080, read-out: IC50 in cell proliferation assay, HT-1080 cell line",0.971 µM
same,IC50,"[2]; Homo sapiens, Hs746T, read-out: IC50 in cell proliferation assay, Hs 746.T cell line (MET exon14skip + amplification)",> 10 µM
same,IC50,"[2]; Homo sapiens, Hs-578T, read-out: IC50 in cell proliferation assay, Hs 578T cell line",1.11 µM
same,IC50,"[2]; Homo sapiens, HuTu80, read-out: IC50 in cell proliferation assay, HuTu 80 cell line",2.99 µM
same,IC50,"[2]; Homo sapiens, J82, read-out: IC50 in cell proliferation assay, J82 cell line",> 10 µM
same,IC50,"[2]; Homo sapiens, Jurkat E6.1, read-out: IC50 in cell proliferation assay, Jurkat E6.1 cell line",1.3 µM
same,IC50,"[2]; Homo sapiens, K562, read-out: IC50 in cell proliferation assay, K-562 cell line",> 10 µM
same,IC50,"[2]; Homo sapiens, KATO III, read-out: IC50 in cell proliferation assay, KATO III cell line (FGFR2 amplification)",1.77 µM
same,IC50,"[2]; Homo sapiens, KG-1, read-out: IC50 in cell proliferation assay, KG-1 cell line (FGFR1OP2-FGFR1)",1.21 µM
same,IC50,"[2]; Homo sapiens, KLE, read-out: IC50 in cell proliferation assay, KLE cell line",1.56 µM
same,IC50,"[2]; Homo sapiens, KMS-11, read-out: IC50 in cell proliferation assay, KMS-11 cell line (FGFR3 p.Y373C)",> 10 µM
same,IC50,"[2]; Homo sapiens, KU812, read-out: IC50 in cell proliferation assay, Ku812 cell line",8.65 µM
same,IC50,"[2]; Homo sapiens, Kasumi 1, read-out: IC50 in cell proliferation assay, Kasumi-1 cell line (KIT p.N822K)",9.05 µM
same,IC50,"[2]; Homo sapiens, LC-2-ad, read-out: IC50 in cell proliferation assay, LC-2/ad cell line (CCDC6-RET)",2.07 µM
same,IC50,"[2]; Homo sapiens, LNCaP-Clone-FGC, read-out: IC50 in cell proliferation assay, LNCaP clone FGC cell line",2.73 µM
same,IC50,"[2]; Homo sapiens, LS174T, read-out: IC50 in cell proliferation assay, LS174T cell line",> 10 µM
same,IC50,"[2]; Homo sapiens, LS-411N, read-out: IC50 in cell proliferation assay, LS411N cell line (BRAF p.V600E)",0.022 µM
same,IC50,"[2]; Homo sapiens, LoVo, read-out: IC50 in cell proliferation assay, LoVo cell line",4.36 µM
same,IC50,"[2]; Homo sapiens, MCF7, read-out: IC50 in cell proliferation assay, MCF-7 cell line",> 10 µM
same,IC50,"[2]; Homo sapiens, MDA-MB-231, read-out: IC50 in cell proliferation assay, MDA-MB-231 cell line",> 10 µM
same,IC50,"[2]; Homo sapiens, MDA-MB-453, read-out: IC50 in cell proliferation assay, MDA-MB-453 cell line",> 10 µM
same,IC50,"[2]; Homo sapiens, MDA-MB-468, read-out: IC50 in cell proliferation assay, MDA-MB-468 cell line",> 10 µM
same,IC50,"[2]; Homo sapiens, MG-63, read-out: IC50 in cell proliferation assay, MG-63 cell line",> 10 µM
same,IC50,"[2]; Homo sapiens, MIA PaCa-2, read-out: IC50 in cell proliferation assay, MIA PaCa-2 cell line",> 10 µM
same,IC50,"[2]; Homo sapiens, MKN-45, read-out: IC50 in cell proliferation assay, MKN45 cell line (MET amplification)",> 10 µM
same,IC50,"[2]; Homo sapiens, MOLM-13, read-out: IC50 in cell proliferation assay, MOLM-13 cell line (FLT3 ITD)",5.7 µM
